Data taken from patent US20030162759A1, “Aldosterone blocker therapy to prevent or treat inflammation-related disorders” (priority 2000, published 2003).
“And” between values parts separate entries of the source, which are not always exact repeats. Identical values can stand only once. “Also recorded” adds a separate entry of the source.

What was measured:
Assay type in all cases: in vivo, rat
[1] = system: aldosterone + salt treated rats; assay: Assay C: myocardial histopathology, semi-quantitative injury score 0 to 4; conditions: for Myocardial Necrosis (0-4), Mean: group mean
Procedure: The procedure of Assay B was expanded upon in a further study. […] Myocardial tissue from animals in each treatment group was examined after 7, 14, or 30 days of treatment. […] Lesions were preceded by the expression and progressive upregulation of proinflammatory molecules. […] Prior to surgery the animals were individually weighed and placed in one of the following groups: […] Potassium chloride supplementation was added to the saline solution in order to prevent the potential hypokalemia associated with aldosterone excess. […] Louis, Mo.) was inserted subcutaneously at the nape of the neck. Aldosterone was administered at a dose of […]. […] Animals were sacrificed from each group (n=8-13) after 7, 14, or 30 days of treatment. Following exsanguination, hearts and kidneys were isolated, removed, rinsed in cold phosphate-buffered saline, and blotted dry. […] The equatorial regions of the heart were routinely processed into paraffin with an automated tissue processor (Hypercenter XP, Shandon/Lipshaw Inc., Pittsburgh, Pa.) and embedded into fresh paraffin apical side down (Shandon Embedding Center, Shandon/Lipshaw Inc.). […] Ten m sections were stained with the collagen specific stain, Picrosirius Red F3BA (Saturated Picric Acid (Sigma Chemical, St. […] Waterbury, Conn.) (6). Mounted tissues were hydrated with water. […] Slides were coverslipped with #1 cover glass using Permount Histological Mounting Media (Fisher Scientific). Two slides mounted with 5 m sections were cut for each animal. One slide was processed for H&E staining and one for Periodic Acid Schiff (PAS) staining. The H&E and PAS were used for pathological scoring of the hearts. Semi-quantification of myocardial injury was performed as described previously with minor modifications (7). Briefly, a scale from 0 to 4 was used to score the level of myocardial injury. A score of 0 represented no damage. […] Myocardial necrosis was defined as the presence of necrotic changes in cardiomyocytes such as nuclear pyknosis or karyolysis, non-contracting marginal wavy fibers and hypereosinophilia of the cytoplasm, or clear evidence of destruction of the cardiomyocyte membrane.

[2] = system: Monocyte Chemoattractant Protein-1 (MCP-1); assay: Assay C: MCP-1 relative mRNA expression in heart (TaqMan); conditions: for MCP1, Mean / MCP1: mRNA; for MCP1, Mean: group mean; for MCP1: individual rats; for MCP-1 mRNA expression in myocardium: time course 7, 14, 30 days, eplerenone 100 mg/kg/day
Procedure: The procedure of Assay B was expanded upon in a further study. […] Myocardial tissue from animals in each treatment group was examined after 7, 14, or 30 days of treatment.
Potassium chloride supplementation was added to the saline solution in order to prevent the potential hypokalemia associated with aldosterone excess.
At the time of the surgery, an Alzet 2002 osmotic minipump (Alza Corp., Palo Alto, Calif.) containing either vehicle (9% ethanol/87% propylene glycol/4% dH2O) or 1.0 mg/mL d-aldosterone (Sigma Chemical, St. Louis, Mo.) was inserted subcutaneously at the nape of the neck. Aldosterone was administered at a dose of 0.75 g/hour. […] Animals were sacrificed from each group (n=8-13) after 7, 14, or 30 days of treatment.
The fluorogenic 5′-nuclease assay (TaqMan PCR) using Applied Biosystems' 7700 Sequence Detection System (Applied Biosystems, Foster City, Calif.) allowed for real time detection/quantitation of a specific gene by monitoring the increase in fluorescence of a gene-specific, dye-labeled oligonucleotide probe. Probes for target and reference genes were labeled at the 5′-end with a 6-carboxyfluorescein (6FAM) reporter dye and at the 3′-end with a 6-carboxy-N,N,N′,N′-tetramethylrhodamine (TAMRA) quencher dye. When the probe was annealed to the target gene, fluorescence of 6FAM was prevented by the close proximity of TAMRA. The exonuclease activity of Taq polymerase released the dyes from the oligonucleotide probe by displacing the probe from the target sequence resulting in fluorescence excitation in direct proportion to the amount of target message present. Data analysis was performed using the Sequence Detection System software from Applied Biosystems.
All primers and probes were designed using Primer Express software supplied with the 7700 Sequence Detection System and synthesized by Applied Biosystems. Standard curves using 5-fold dilutions of total RNA (from 200 ng to 320 pg) were performed to determine the efficiency of each primer/probe set in the TaqMan reaction prior to the analysis of the experimental samples. Primer/probe sets were designed from known sequences of rat genes to be analyzed. All target gene values were normalized to a reference gene, constitutively expressed cyclophilin. Primer/probe set sequences can be found in Table 8.
RNA was extracted from frozen (−80° C.) rat heart tissue using the Totally RNA Isolation Kit (Ambion, Inc., Austin, Tex.). Tissue was crushed using a stainless steel mortar and pestle, which had been chilled to −80° C. and transferred to a dounce homogenizer (Kontes, Vineland, N.J.) containing 3-10 mL cold denaturation buffer. Tissue was homogenized and transferred to a sterile, 15 mL polypropylene centrifuge tube. An equal volume of phenol:chloroform:isoamyl alcohol (25:24:1) was added, samples were shaken vigorously for 1 min, and incubated on ice for at least 15 min. Samples were centrifuged for 30 min at 10,000 g. The aqueous phase was removed, 1/10 volume of a sodium acetate solution (3.0 M NaOAc pH 4.5) was added, samples were shaken or inverted for 10 seconds, and acid-phenol (premixed with isoamyl alcohol):chloroform (5:1, Ambion, Inc.) was added at an volume equivalent to the starting sample volume. Samples were shaken vigorously for 1 min, followed by a 15-min incubation on ice, and centrifuged for 30 min at 10,000 g. The aqueous phase removed and placed in a clean polypropylene tube. An equal volume of isopropanol (Sigma, St. Louis, Mo.) was added and the samples were mixed and incubated overnight at −20° C. The samples were centrifuged for 30 min at 10,000 g, the supernatant was removed and the RNA pellet was resuspended in DNAse/RNAse-free water. Samples were frozen at −80° C. for at least 2 hours, thawed on wet ice, and diluted for quantitation.

osteopontin [3] = assay: Assay B aldosterone infusion model: osteopontin immunohistochemistry of hearts; conditions: aldosterone infused rats; eplerenone 100 mpk p.o.
Procedure: Assay B: In vivo Aldosterone Infusion Model Male Sprague Dawley rats (n=39; BW=250 g) […] Uni-nephrectomy performed during implantation of mini-pumps 2. Aldosterone ([…], sc via aizet minipump) 2. […] 1. […] Sacrifice after 4 weeks. Determination of osteopontin and COX-2 was performed by quantitative RT-PCR (Taqman). Osteopontin was also identified in the heart by immunohistochemistry.

osteopontin [4] = assay: Assay A angiotensin II infusion model: osteopontin immunostaining of hearts; conditions: angiotensin II infused, saline-drinking rats; eplerenone 100 mpk
Procedure: Male Wistar rats (n—50, 10/group; BW=200 g)
2. Angiotensin 11 (25 ng/min, sc via aizet minipump)
Osteopontin (also known as early T-cell activation-1, Eta-1) is a secreted glycoprotein with pro-inflammatory characteristics that mediates chemoattraction, activation and migration of monocytes.

Compound	Myocardial Necrosis (0-4) ([1]; Table 9.14, 7-day protocol, score 0-4, group Mean)	Myocardial Necrosis (0-4) ([1]; Table 9.14, 7-day protocol, score 0-4, individual rats)	Myocardial Necrosis (0-4), Mean ([1]; 14 days of treatment)	Myocardial Necrosis (0-4), Mean ([1]; 30 days of treatment)	Myocardial Necrosis (0-4) ([1]; mean ± SEM after 7 days of treatment, eplerenone 100 mg/kg/day)	MCP1, Mean ([2]; 14 days of treatment)	MCP1, Mean ([2]; 30 days of treatment)	MCP1 ([2]; 7 days of treatment, listed as Aldosterone + salt)	MCP1 ([2]; 14 days of treatment, listed as Aldosterone + salt)	MCP1 ([2]; 30 days of treatment, listed as Aldosterone + salt)	MCP-1 mRNA expression in myocardium [2]	Osteopontin expression in the heart (immunostaining) (osteopontin [3])	Osteopontin expression in the heart (immunostaining) (osteopontin [4])	Myocardial injury (vascular and myocardial damage, histopathology) ([1]; 7, 14, 30 days, eplerenone 100 mg/kg/day)	Myocardial Necrosis (0-4) ([1]; individual rats, 14 days of treatment, eplerenone 100 mg/kg/day, listed as Eplerenone + aldosterone + salt)	Myocardial Necrosis (0-4) ([1]; mean ± SEM after 30 days of treatment, eplerenone 100 mg/kg/day)	MCP1, Mean ([2]; 7 days of treatment)	MCP1 ([2]; 7 days of treatment, listed as Eplerenone + aldosterone + salt)	MCP1 ([2]; 14 days of treatment, listed as Eplerenone + aldosterone + salt)	MCP1 ([2]; 30 days of treatment, listed as Eplerenone + aldosterone + salt)
C[C@]12CCC(=O)C=C1CC[C@@H]1[C@@H]2[C@@H](O)C[C@]2(C=O)[C@@H](C(=O)CO)CC[C@@H]12 [aldosterone]	0.0	0.0	0.8	2.0	0.0 ± 0.0	2.76 AU	4.54 AU	2.40 AU	2.50 AU	2.30 AU	significantly increased	osteopontin was clearly identified in the media of coronary arteries	restored osteopontin expression							
COC(=O)[C@@H]1CC2=CC(=O)CC[C@]2(C)[C@@]23O[C@@H]2C[C@@]2(C)[C@@H](CC[C@@]24CCC(=O)O4)[C@H]13 [eplerenone, Pregn-4-ene-7,21-dicarboxylic acid, 9,11-epoxy-17-hydroxy-3-oxo-, γ-lactone, methyl ester, (7α, 11α, 17β) -]			0.5	0.0			2.29 AU				significantly reduced; also recorded: inhibition of early time-course expression of myocardial MCP-1	prevention by eplerenone of induction of osteopontin expression; also recorded: prevented the expression of osteopontin	prevented osteopontin expression	markedly attenuated myocardial injury at all time points; also recorded: markedly attenuated this initial vascular inflammatory response and subsequent myocardial injury	0.0	0.0 ± 0.0	1.56 AU	1.60 AU and 0.85 AU and 0.83 AU and 0.67 AU	1.60 AU and 1.20 AU	1.70 AU and 2.10 AU
